Assay results from ChEMBL document CHEMBL1140569, “Synthesis and structure-activity relationships of thieno[2,3-b]pyrroles as antagonists of the GnRH receptor” (Bioorg Med Chem Lett, 2007).
Converted amounts (≈) assume the structure as drawn. The source made the active and inactive calls. The calls are words filed in the database; no cut-off is given here.

Legend:
[1] = AUC in rat at 1 mg/kg, po; assay type: ADME, organism-based; design: dose 1 mg/kg, route oral; settings: plasma
[2] = Oral bioavailability in rat; assay type: ADME, organism-based; settings: in vivo
[3] = Plasma clearance in rat; assay type: ADME, organism-based
[4] = AUC in rat at 10 mg/kg, po; assay type: ADME, organism-based; design: dose 10 mg/kg, route oral; settings: plasma
[5] = Solubility in 0.1 M phosphate buffer at pH 7.4
Cytochrome P450 3A4 = Cytochrome P450 3A4 (Homo sapiens, UniProt P08684); experiment: Inhibition of human CYP3A4
Sequence of Cytochrome P450 3A4 (P08684 whole entry): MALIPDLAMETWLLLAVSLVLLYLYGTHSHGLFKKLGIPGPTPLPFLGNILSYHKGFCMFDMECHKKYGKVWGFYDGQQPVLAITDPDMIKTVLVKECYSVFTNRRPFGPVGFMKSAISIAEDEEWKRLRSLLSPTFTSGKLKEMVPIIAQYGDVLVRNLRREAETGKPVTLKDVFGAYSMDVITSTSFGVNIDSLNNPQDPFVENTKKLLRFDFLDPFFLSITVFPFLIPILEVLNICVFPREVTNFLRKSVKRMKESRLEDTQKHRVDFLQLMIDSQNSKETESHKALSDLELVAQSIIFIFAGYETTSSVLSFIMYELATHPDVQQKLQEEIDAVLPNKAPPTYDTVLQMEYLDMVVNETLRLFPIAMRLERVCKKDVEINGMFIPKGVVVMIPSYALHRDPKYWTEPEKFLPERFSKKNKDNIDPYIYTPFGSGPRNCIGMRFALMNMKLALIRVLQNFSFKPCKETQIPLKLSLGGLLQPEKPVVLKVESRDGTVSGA

Rattus norvegicus = experiment: Inhibition of LH production in castrated AP Wistar Han rat model at 75 mg/kg, po after 12 hrs by radioimmunoassay; assay type: functional, organism-based; design: dose 75 mg/kg

In the case of Cc1cc(C)cc(-c2[nH]c3sc(C(C)(C)C(=O)N4C5CCC4CC5)cc3c2CCN2CCC(CNC(=O)N3CCOCC3)CC2)c1, the AUC [1] is reported as 0.018 µM·h.
In the case of COC1CCN(C(=O)C2CCN(CCc3c(-c4cc(C)cc(C)c4)[nH]c4sc(C(C)(C)C(=O)N5C6CCC5CC6)cc34)CC2)C1 (stereo not drawn), the bioavailability [2] is reported as 38%, the clearance [3] is reported as 0.8 mL/min/kg and the AUC [4] is reported as 190 µM·h.
With COC(=O)/N=C(/NC[C@@H](C)c1c(-c2cc(C)cc(C)c2)[nH]c2sc(C(C)(C)C(=O)N3C4CCC3CC4)cc12)N1CCC(c2ccncc2)C1 (stereo partly drawn) the solubility [5] was 4.6 µM (≈ 3.13 µg/mL).
Cc1cc(C)cc(-c2[nH]c3sc(C(C)(C)C(=O)N4C5CCC4CC5)cc3c2CCN2CCC(CC(=O)N3CCOCC3)CC2)c1 showed an AUC [1] of 0.041 µM·h.
Cc1cc(C)cc(-c2[nH]c3sc(C(C)(C)C(=O)N4CCCC4)cc3c2[C@H](C)CNC(=O)N2CCC(c3ccccc3)C2)c1 (stereo partly drawn) showed a solubility [5] of 56 µM (≈ 33.4 µg/mL).
Work on CC(=O)N1CCN(CC(O)CN2CCN(CCc3c(-c4cc(C)cc(C)c4)[nH]c4sc(C(C)(C)C(=O)N5C6CCC5CC6)cc34)CC2)CC1 (stereo not drawn) yielded a solubility [5] of 236 µM (≈ 163 µg/mL) and an IC50 (Cytochrome P450 3A4) of 6 µM.
In the case of Cc1cc(C)cc(-c2[nH]c3sc(C(C)(C)C(=O)N4C5CCC4CC5)cc3c2CCN2CCN(CC(=O)N3CCOCC3)CC2)c1, the bioavailability [2] is reported as 4% and the clearance [3] is reported as 153 mL/min/kg.
Compound Cc1cc(C)cc(-c2[nH]c3sc(C(C)(C)C(=O)N4C5CCC4CC5)cc3c2CCN2CCC(N3CCOCC3)CC2)c1 has an AUC [1] of 0.006 µM·h.
Cc1cc(C)cc(-c2[nH]c3sc(C(C)(C)C(=O)N4C5CCC4CC5)cc3c2[C@H](C)CNC(=O)N2CCC(c3ccncc3)CC2)c1 gave a solubility [5] of 0.6 µM (≈ 0.383 µg/mL).
In the case of CCN(CC)CCOC1CCN(CCc2c(-c3cc(C)cc(C)c3)[nH]c3sc(C(C)(C)C(=O)N4C5CCC4CC5)cc23)CC1, the AUC [1] is reported as 0.002 µM·h.
For Cc1cc(C)cc(-c2[nH]c3sc(C(C)(C)C(=O)N4C5CCC4CC5)cc3c2CCN2CCC(C(=O)N3CCOCC3)C(C)C2)c1 (stereo not drawn), the AUC [4] was 0.254 µM·h.
With Cc1cc(C)cc(-c2[nH]c3sc(C(C)(C)C(=O)N4C5CCC4CC5)cc3c2CCN2CCC(C(=O)N3CCOCC3)CC2)c1 the clearance [3] was 4 mL/min/kg, the Activity (Rattus norvegicus) was “Active” and the AUC [4] was 27.1 µM·h.
In the case of Cc1cc(C)cc(-c2[nH]c3sc(C(C)(C)C(=O)N4C5CCC4CC5)cc3c2CCN2CCC(OCC(=O)N3CCOCC3)CC2)c1, the AUC [4] is reported as 0.526 µM·h.
Cc1cc(C)cc(-c2[nH]c3sc(C(C)(C)C(=O)N4C5CCC4CC5)cc3c2[C@H](C)CN/C(=N/C(=O)OC(C)C)N2CCC(c3ccncc3)CC2)c1 gave a solubility [5] of 1.4 µM (≈ 1.01 µg/mL).
In the case of CC(=O)NC1CCN(C(=O)CN2CCN(CCc3c(-c4cc(C)cc(C)c4)[nH]c4sc(C(C)(C)C(=O)N5C6CCC5CC6)cc34)CC2)C1 (stereo not drawn), the solubility [5] is reported as 107 µM (≈ 72 µg/mL).
Work on COC1CCN(C(=O)C2CCN(CCc3c(-c4cc(C)cc(C)c4)[nH]c4sc(C(C)(C)C(=O)N5C6CCC5CC6)cc34)CC2)CC1 yielded a bioavailability [2] of 35%, a clearance [3] of 0.1 mL/min/kg and an AUC [4] of 358 µM·h.
Work on Cc1cc(C)cc(-c2[nH]c3sc(C(C)(C)C(=O)N4C5CCC4CC5)cc3c2CN2CCN(CC(=O)N3CCCC3)CC2)c1 yielded a solubility [5] of 2 µM (≈ 1.2 µg/mL).
With Cc1cc(C)cc(-c2[nH]c3sc(C(C)(C)C(=O)N4C5CCC4CC5)cc3c2C(=O)CN2CCN(CC(=O)N3CCCC3)CC2)c1 the solubility [5] was 947 µM (≈ 596 µg/mL).
With Cc1cc(C)cc(-c2[nH]c3sc(C(C)(C)C(=O)N4C5CCC4CC5)cc3c2C(=O)CN2CCC(C(=O)N3CCOCC3)CC2)c1 the AUC [1] was 0.36 µM·h.
Cc1cc(C)cc(-c2[nH]c3sc(C(C)(C)C(=O)N4C5CCC4CC5)cc3c2CCN2CCN(CC(=O)N(C)C)CC2)c1 gave a solubility [5] of 104 µM (≈ 61.3 µg/mL).
Work on Cc1cc(C)cc(-c2[nH]c3sc(C(C)(C)C(=O)N4C5CCC4CC5)cc3c2CCN2CCC(C(=O)N3CCCC(O)C3)CC2)c1 (stereo not drawn) yielded a clearance [3] of 1.3 mL/min/kg and an AUC [4] of 39.3 µM·h.
Work on Cc1cc(C)cc(-c2[nH]c3sc(C(C)(C)C(=O)N4C5CCC4CC5)cc3c2[C@H](C)CNC(=NC(=O)OC(C)C)N2CCC(c3ccncc3)C2)c1 (stereo partly drawn) yielded a solubility [5] of 0.8 µM (≈ 0.567 µg/mL).
With Cc1cc(C)cc(-c2[nH]c3sc(C(C)(C)C(=O)N4C5CCC4CC5)cc3c2CCN2CCN(CC(O)CN3CCNCC3)CC2)c1 (stereo not drawn) the solubility [5] was 425 µM (≈ 275 µg/mL) and the IC50 (Cytochrome P450 3A4) was > 10 µM.
